One assay addresses T1, Human IDO1 (Homo sapiens, UniProt P14902).
T1 construct: expressed in transfected cells; host or cells: HEK293
The experiment in a line: IDO Kynurenine Assay with Human IDO1/HEK293 Cells. The settings on record: 20 hours incubation, kynurenine absorbance at 490 nm, read-out: HEK human IDO-1 (IC50). In kind it is cell-based. As for the experimental part: IDO Kynurenine Assay with Human IDO1/HEK293 Cells
Human IDO1/HEK293 cells were seeded at 10,000 cells per 50 uL per well with RPMI/phenol red free media contains 10% FBS in a 384-well black wall clear bottom tissue culture plate (Matrix Technologies LLC) 125 nL of certain concentration of compound was then added to each well using ECHO liquid handling systems. The cells were incubated for 20 hours in 37° C. incubator with 5% CO2.
The compound treatments were stopped by adding Trichloroacetic Acid (Sigma-Aldrich) to a final concentration at 0.2%. The cell plate was further incubated at 50° C. for 30 minute. The equal volume supernatant (20 uL) and 0.2% (w/v) Ehrlich reagent (4-dimethylaminobenzaldehyde, Sigma-Aldrich) in glacial acetic acid were mixed in a new clear bottom 384-well plate. This plate was then incubated at room temperature for 30 minute. The absorbance at 490 nm was measured on Envision plate reader.
Compound IC50 values were calculated using the counts of 500 nM of a reference standard treatment as one hundred percent inhibition, and counts of no compound but DMSO treatment as zero percent inhibition.

Assay [1] has as its target T2, IDO (IFNγ-treated Hela cells) (Homo sapiens, UniProt P14902).
T2 construct: endogenous in cells; host or cells: Hela cells treated with IFNγ (10 ng/ml)
Kind of assay: IDO Kynurenine Assay with Hela Cells. Format: cell-based. The settings on record: IFNγ 10 ng/ml, 20 hours incubation, kynurenine absorbance at 490 nm, read-out: Hela Cells LLE_IDO_ABS_DR (IC50). As for the experimental part: IDO Kynurenine Assay with Hela Cells
Hela cells were seeded at 30,000 cells per well in 40 ul RPMI/phenol red free media contains 10% FBS in a 384-well black wall clear bottom tissue culture plate (Matrix Technologies LLC). 270 nl of certain concentration of compound was then added to each well using ECHO liquid handling systems. 40 ul of IFNγ (R&D, 285-IF-100) at final concentration of 10 ng/ml was then added to column 2-24 with media to column 1 as control. The cells were incubated for 20 hours in 37° C. incubator with 5% CO2.
The compound treatments were stopped by adding trichloroacetic acid (Sigma-Aldrich) to a final concentration at 0.2%. The cell plate was further incubated at 50° C. for 30 minute. The equal volume supernatant (20 uL) and 0.2% (w/v) Ehrlich reagent (4-dimethylaminobenzaldehyde, Sigma-Aldrich) in glacial acetic acid were mixed in a new clear bottom 384-well plate. This plate was then incubated at room temperature for 30 minute. The absorbance at 490 nm was measured on Envision plate reader.
Compound IC50 values were calculated using the counts of no IFNγ control as one hundred percent inhibition, and counts of no compound but DMSO treatment as zero percent inhibition.

T2 sequence (P14902 whole entry): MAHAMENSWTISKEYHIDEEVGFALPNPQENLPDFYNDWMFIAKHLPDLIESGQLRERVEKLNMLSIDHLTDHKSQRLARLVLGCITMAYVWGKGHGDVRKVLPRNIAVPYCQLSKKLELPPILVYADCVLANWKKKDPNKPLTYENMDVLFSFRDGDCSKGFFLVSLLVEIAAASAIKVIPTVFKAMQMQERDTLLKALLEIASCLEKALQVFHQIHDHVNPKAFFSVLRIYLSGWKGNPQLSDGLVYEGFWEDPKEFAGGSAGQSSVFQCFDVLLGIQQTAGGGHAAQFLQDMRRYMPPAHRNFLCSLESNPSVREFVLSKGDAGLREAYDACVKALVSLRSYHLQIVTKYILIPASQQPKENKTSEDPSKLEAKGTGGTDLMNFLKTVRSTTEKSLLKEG
T1 sequence (P14902 whole entry): as above

What is called IC50 is the concentration that inhibits the measured activity by half. In the case of `CC(C)CN(CC(C)C)c1ccc(-c2ccccc2-c2nnn[nH]2)cc1NC(=O)Cc1ccc(F)cc1` [Example 12, N-(4-(diisobutylamino)-2′-(1H-tetrazol-5-yl)biphenyl-3-yl)-2-(4-fluorophenyl)acetamide], the values for the IC50 (on Human IDO1; in assay [1]) were 2.99 nM and 10 nM, respectively.
In the same order, the values of `O=C(Cc1ccccc1C(F)(F)F)Nc1cc(-c2ccccc2-c2nnn[nH]2)ccc1N1CC2CC1CN2Cc1ccccc1` (stereo not shown) [Example 81] are 110 nM and 100 nM.

Source of the values: patent US9895330B2, “IDO inhibitors” (BRISTOL-MYERS SQUIBB COMPANY, priority 2013, dated 2018).
